Test results taken from ChEMBL document CHEMBL3507680, “University of Dundee, Gates Library screen for HepG2 cell viability”.

Test: Human HepG2 cell viability assay in 384 well format
Format: toxicity, cell-based
Design: dose 125 nL, time 70.5 hour; concentration not given beside the values
Conditions: HepG2 cells, read-out: Inhibition

SMILES | cytotoxicity at 70.5 h [%]
COC(=O)c1cc(CN2CCN(c3ncccc3C)CC2)ccc1O | 39.9
Cc1cccc(-n2nc(CC(C)C)nc2CCC(=O)N(C)C)c1 | 0.846
CC(C)n1ccnc1C1CCCN(Cc2ccc(F)c(F)c2)C1 (stereo unspecified) | 38
CCc1nccn1CCCNC(=O)c1cnn(-c2ccccc2OC)c1 | -5.05
O=C1CCC2(CCOC2)CN1CCCOc1cccnc1 (stereo unspecified) | 0.321
CCNC(=O)C1CCN(c2cc(-c3ccccc3)nc3ccnn23)C1 (stereo unspecified) | -0.497
CSc1nccc(NCC2CNCCOC2)n1 (stereo unspecified) | -11.3
CSCCC(=O)N1CCC(c2nccn2Cc2cscn2)CC1 | -5.4
CCN1CCN(C2(C(=O)NC3CCCC3)Cc3ccccc3C2)CC1 | -3.96
CC(C)c1cc(C(=O)N2CCN(CC3CC3)[C@@H]3CS(=O)(=O)C[C@@H]32)no1 | -3.21
O=C(c1cc(Cn2ccc3ccccc32)[nH]n1)N1CCCCC1CO (stereo unspecified) | 10.4
CC(C)N1CCOC(CC(=O)N2CCCN(c3ccc(F)cc3)CC2)C1 (stereo unspecified) | -3.4
Cc1cc(C(=O)N2CCC(c3nnc(Cn4ccnc4)n3C)CC2)cs1 | -9.51
CN1C(=O)C2(CCN(c3ncccc3C(=O)O)CC2)c2ccccc21 | -8.18
Cc1cccnc1CN1CCN(C(=O)c2cnn(C(C)C)c2)CC1 | 15.6
CCc1cnc(N)nc1NC(C)c1ccc(C)c(C)c1 (stereo unspecified) | -0.902
CN(C)C(=O)CN1C[C@@H]2CC[C@H](C1)N(Cc1c(Cl)cncc1Cl)C2 | -9.62
CC(=O)c1ccc(N2CCCC(CO)(Cc3ccccc3C)C2)nc1 (stereo unspecified) | -3.1
CCC(C)Nc1ccc(-c2nc(-c3cccc(OC)c3OC)no2)cn1 (stereo unspecified) | 13.1

SMILES | cytotoxicity at 70.5 h [%]
CC(O)CN1CCc2onc(-c3ccccc3F)c2C1 (stereo unspecified) | -22.3
CS(=O)(=O)CCc1ncnn1-c1ccc(F)c(Cl)c1 | -2.51
Cc1ccc(CN2CCNC(=O)C2CC(=O)N2CCSCC2)o1 (stereo unspecified) | 2.5
Cn1c(-c2ccc(F)cc2)cn2cc(C(=O)N3CC[C@@H](O)C3)nc2c1=O | -10.1
NCc1cn(CC2CCCN(C(=O)NCc3ccc(Cl)cc3)C2)nn1 (stereo unspecified) | 2.71
CN(C)CCCn1ccc(-c2cccc(-c3ccccn3)c2)n1 | 15.8
CC[C@@H](CO)NC(=O)c1coc(COc2ccc3sc(C)nc3c2)n1 | -12.1
COc1cc(NC2CCS(=O)(=O)CC2)ncn1 | -16.4
Nc1cc(C(=O)NCC2CCN(Cc3ccncc3F)C2)ccn1 (stereo unspecified) | 20.9
COCCC1(C(=O)O)CCCN(C(=O)c2cnc3c(c2)CCCC3)C1 (stereo unspecified) | -14.8
CCn1nc(C)c(CN(CCOC)Cc2ccccn2)c1C | -6.94
NC(=O)C1CCN(CC(=O)N(Cc2ccccc2)Cc2nccs2)CC1 | -7.45
Cc1noc(CN(C)c2nc(-c3ccco3)nc3c2CCN(C)CC3)n1 | -12.8
CSc1ncccc1C(=O)N(C)C(C)Cc1ccccn1 (stereo unspecified) | -18.1
O=C(NCCSc1ccccc1)[C@H]1CNC[C@H](C(=O)N2CCOCC2)C1 | -6.2
Cc1nccnc1N1CCC(Cc2ccccc2Cl)(C(=O)O)CC1 | -11.4
O=C(c1ccc2ncsc2c1)N1CCC(C(=O)O)(n2cccn2)CC1 | -8.58
CC(C)c1noc(CCNC(=O)C2COc3ccccc3C2)n1 (stereo unspecified) | 13.6
COCCN1CCc2onc(C(c3ccccc3)c3ccccc3)c2C1 | -8.42

SMILES | cytotoxicity at 70.5 h [%]
O=C1CCCc2occ(C(=O)N3CCCC(O)(CO)C3)c21 (stereo unspecified) | 31
C[C@@H]1CN(C(=O)C2CCS(=O)(=O)CC2)CC[C@@]1(O)C1CCOCC1 | -11
CCOc1ccc(-c2ccnc(C3CC3)n2)cc1C(=O)O | -3.39
Cc1noc(CC2CCN(Cc3ccc(CCC(C)(C)O)cc3)CC2)n1 | -10.5
COc1cccc2c1OCCCN(c1nc3c(c(=O)[nH]1)CCNCC3)C2 | -3.8
O=C1CC(NS(=O)(=O)N2CCOCC2)CN1Cc1ccc(F)cc1 (stereo unspecified) | -2.75
CCOCCn1nc(C2CCNCC2)n(Cc2ccccc2)c1=O | 3.02
CCCc1cncnc1N1CCC(NCc2ccncc2)CC1 | -13.1
CC(C)c1ccc(CN2CCCC3(CC2)CN(C)C(=O)O3)cc1 (stereo unspecified) | -1.93
CCc1nnc(N2CCN(c3ccccc3)C(=O)C2)o1 | -7.77
CNc1nc(C(=O)NCc2cccnc2N(C)C2CCCCC2)cs1 | 12.4
Cc1ccc(C(=O)N2CCC3(CC2)C(=O)NCCN3C)cc1O | -6.34
COc1c(F)cc(CN2CCC3(CC2)C(C(=O)O)CC(=O)N3C)cc1Cl (stereo unspecified) | -3.91
Cc1nc(C2CCCNC2)cc(N2CCc3nc(N)sc3C2)n1 (stereo unspecified) | 17.4
CC(C)N1CCC(CC(=O)N2CCC(C(O)c3nccn3C)CC2)CC1 (stereo unspecified) | -3.4
Cc1ccnc(NCc2cn3c(C)csc3n2)n1 | -11.5
Cc1nccn1CCC(=O)N1CCC2(CCC(=O)N(CC3CC3)C2)CC1 | 2.21
CNC(=O)C1(N(C)CCc2ccccc2)Cc2ccccc2C1 | -1.19
